According to the supplement of paper PMC10307832:

What was measured:
Test in all cases: relative viability (nuclei count vs DMSO), 5 days (fraction); higher = more cells survive
[1] = compound: C1CNCCC1C2=CC(=NN2)C3=CC=NC=C3 + O=C(CCCCCCC(=O)Nc1ccccc1)NO [Vorinostat] (partner 1 µM)
Method in brief: (§1)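 Five library-drug doses in √10 steps were combined with a fixed anchor-drug dose, or a single drug was given alone, by pin tool to lung cancer cell lines in 1536-well plates the day after seeding. Nuclei were stained and counted after 5 days. Relative viability is the nuclei count in treated wells over that in vehicle wells, taken as the median of duplicate plates.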

Tanzisertib + OSI-027 = compound: O[C@H]1CC[C@H](Nc2ncc3nc(Nc4c(F)cc(F)cc4F)n([C@H]4CCOC4)c3n2)CC1 [Tanzisertib] + COc1cccc2cc(-c3nc([C@H]4CC[C@H](C(=O)O)CC4)n4ncnc(N)c34)[nH]c12 [OSI-027] (partner 0.5 µM)
Method in brief: as §1

Tanzisertib + Crizotinib = compound: O[C@H]1CC[C@H](Nc2ncc3nc(Nc4c(F)cc(F)cc4F)n([C@H]4CCOC4)c3n2)CC1 [Tanzisertib] + C[C@@H](Oc1cc(-c2cnn(C3CCNCC3)c2)cnc1N)c1c(Cl)ccc(F)c1Cl [Crizotinib] (partner 1 µM)
Method in brief: as §1

Row | Cell Line | relative viability ([1]; first compound 0.08 µM) | relative viability ([1]; first compound 0.8 µM) | relative viability ([1]; first compound 2.53 µM) | relative viability ([1]; first compound 8 µM) | relative viability (Tanzisertib + OSI-027; first compound 0.08 µM) | relative viability (Tanzisertib + OSI-027; first compound 0.253 µM) | relative viability (Tanzisertib + OSI-027; first compound 0.8 µM) | relative viability (Tanzisertib + OSI-027; first compound 2.53 µM) | relative viability (Tanzisertib + OSI-027; first compound 8 µM) | relative viability (Tanzisertib + Crizotinib; first compound 0.08 µM) | relative viability (Tanzisertib + Crizotinib; first compound 0.253 µM) | relative viability (Tanzisertib + Crizotinib; first compound 0.8 µM) | relative viability (Tanzisertib + Crizotinib; first compound 2.53 µM) | relative viability (Tanzisertib + Crizotinib; first compound 8 µM)
1 | HCC-827 | 0.698 | 0.861 | 1.03 | 0.912 | 0.857 | 0.763 | 0.775 | 0.678 | 0.44 | 0.903 | 0.964 | 0.931 | 0.892 | 0.559
2 | NCI-H650 | 0.433 | 0.437 | 0.434 | 0.546 | 0.517 | 0.661 | 0.508 | 0.624 | 0.441 | 0.725 | 0.686 | 0.712 | 0.881 | 0.636
3 | CAL-12T | 0.693 | 0.932 | 0.964 | 0.981 | 0.612 | 0.633 | 0.62 | 0.748 | 0.635 | 0.677 | 0.715 | 0.684 | 0.547 | 0.686
4 | NCI-H838 | 0.763 | 0.744 | 0.744 | 0.688 | 0.401 | 0.426 | 0.453 | 0.418 | 0.4 | 0.892 | 0.849 | 0.875 | 0.88 | 0.885
5 | NCI-H2228 | 0.537 | 0.589 | 0.667 | 0.587 | 0.822 | 0.633 | 0.616 | 0.499 | 0.379 | 0.53 | 0.458 | 0.475 | 0.465 | 0.351
6 | RERF-LC-KJ | 0.553 | 0.727 | 0.862 | 0.712 | 0.625 | 0.566 | 0.598 | 0.503 | 0.489 | 0.865 | 0.804 | 0.859 | 0.856 | 0.798
7 | NCI-H661 | 0.745 | 0.845 | 0.804 | 0.78 | 0.771 | 0.741 | 0.615 | 0.704 | 0.655 | 1.04 | 0.939 |  | 1.02 | 0.991
8 | HCC-366 | 0.444 | 0.36 | 0.426 | 0.372 | 0.968 | 0.888 | 0.942 | 0.977 | 0.051 | 0.651 | 0.523 | 0.671 | 0.492 | 0.515
9 | SK-LU-1 | 0.783 | 0.766 | 0.857 | 0.729 | 0.392 | 0.324 | 0.319 | 0.354 | 0.365 | 0.994 | 0.776 | 1.03 | 1.05 | 0.834
10 | HCC-44 | 1.11 | 1.2 | 0.998 | 1.11 | 0.665 | 0.557 | 0.546 | 0.561 | 0.353 | 0.907 | 0.824 | 0.822 | 0.89 | 0.817
11 | A-427 | 0.842 | 0.982 | 0.891 | 0.762 | 0.547 | 0.525 | 0.538 | 0.414 | 0.283 | 0.995 | 0.85 | 0.931 | 0.902 | 0.846
12 | SW 1573 |  | 0.642 | 1.01 | 0.967 | 0.829 | 0.594 | 0.558 | 0.592 | 0.484 | 0.769 | 0.798 | 0.769 | 0.872 | 0.611
13 | NCI-H322M | 0.95 | 0.854 | 0.99 | 0.953 | 0.636 | 0.623 | 0.539 | 0.6 | 0.538 | 0.779 | 0.928 | 0.832 | 0.882 | 0.709
14 | ABC-1 | 1.2 | 1.01 | 1.1 | 1.14 | 0.471 | 0.469 | 0.469 | 0.511 | 0.461 | 1.4 | 1.07 | 1.29 | 1.26 | 1.26
15 | LK-2 | 0.304 | 0.26 | 0.363 | 0.126 | 0.26 | 0.209 | 0.193 | 0.16 | 0.186 | 0.233 | 0.271 | 0.232 | 0.244 | 0.235
16 | NCI-H2023 | 0.262 | 0.589 | 0.767 | 0.602 | 0.483 | 0.418 | 0.394 | 0.347 | 0.35 | 0.568 | 0.651 | 0.684 | 0.607 | 0.567
17 | NCI-H596 | 0.73 | 0.417 | 0.638 | 0.589 | 0.779 | 0.666 | 0.766 | 0.63 | 0.555 | 0.979 | 1.05 | 0.955 | 0.988 | 0.902
18 | SK-MES-1 | 0.979 | 0.978 | 1.22 | 1.07 | 0.677 | 0.588 | 0.597 | 0.591 | 0.501 | 0.986 | 0.97 | 0.961 | 0.965 | 0.916
19 | NCI-H2405 | 1.04 | 0.993 | 1.06 | 0.901 | 0.7 | 0.596 | 0.682 | 0.703 | 0.532 | 0.935 | 0.825 | 0.828 | 0.916 | 0.789
20 | LCLC-103H | 0.822 | 0.752 | 0.831 | 0.757 | 0.458 | 0.44 | 0.438 | 0.427 | 0.509 | 1.06 | 1.01 | 1.11 | 1.09 | 1.01
21 | NCI-H460 | 0.484 | 1.01 | 0.787 | 0.683 | 0.664 | 0.683 | 0.549 | 0.624 | 0.502 | 1.06 | 0.897 | 0.978 | 0.923 | 0.791
22 | NCI-H1755 | 0.717 | 0.737 | 0.628 | 0.736 | 0.747 | 0.77 | 0.676 | 0.706 | 0.517 | 0.85 | 0.821 | 0.863 | 0.839 | 0.777
23 | NCI-H358 | 0.492 | 0.654 | 0.907 | 0.617 | 0.817 | 0.637 | 0.661 | 0.655 | 0.501 | 0.748 | 0.716 | 0.511 | 0.506 | 0.485
24 | NCI-H1734 | 0.749 | 0.873 | 0.89 | 0.85 | 0.758 | 0.581 | 0.588 | 0.723 | 0.586 | 0.743 | 0.658 | 0.72 | 0.738 | 0.599
25 | EPLC-272H | 0.618 | 0.501 | 0.452 | 0.468 | 0.285 | 0.264 | 0.25 | 0.314 | 0.251 | 0.958 | 0.862 | 0.864 | 0.874 | 0.872
26 | NCI-H2126 | 0.79 | 0.712 | 0.778 | 0.797 | 0.8 | 0.723 | 0.742 | 0.614 | 0.548 | 1.09 | 1.01 | 1.03 | 0.985 | 1.03
